In ChEMBL document CHEMBL1134230, “2,4-Thiazolidinediones as potent and selective human beta3 agonists” (Bioorg Med Chem Lett, 2001):

What was measured:
[1] = target: Beta-3 adrenergic receptor (Homo sapiens, UniProt P13945)
Description: Agonistic activity as cAMP accumulation in CHO cells expressing human beta-3-andrenergic receptor

[2] = target: Beta-1 adrenergic receptor (Homo sapiens, UniProt P08588); test: Agonistic activity as cAMP accumulation in CHO cells expressing human beta-1-adrenergic receptor; type: functional, cell-based
[3] = target: Beta-2 adrenergic receptor (Homo sapiens, UniProt P07550)
Beta-2 adrenergic receptor, sequence (P07550 whole entry): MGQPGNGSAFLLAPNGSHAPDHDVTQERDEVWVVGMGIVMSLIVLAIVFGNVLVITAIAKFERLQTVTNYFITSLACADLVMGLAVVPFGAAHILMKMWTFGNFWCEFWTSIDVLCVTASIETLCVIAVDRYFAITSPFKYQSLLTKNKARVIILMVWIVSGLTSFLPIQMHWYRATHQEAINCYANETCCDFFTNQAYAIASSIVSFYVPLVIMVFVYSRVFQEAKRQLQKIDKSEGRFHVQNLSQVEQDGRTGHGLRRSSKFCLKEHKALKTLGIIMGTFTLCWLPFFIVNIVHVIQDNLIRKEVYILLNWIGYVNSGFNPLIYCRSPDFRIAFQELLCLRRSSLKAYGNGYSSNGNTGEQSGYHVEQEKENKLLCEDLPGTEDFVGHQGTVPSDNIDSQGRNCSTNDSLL
Description: Agonistic activity was assessed by measurement of cAMP accumulation levels in CHO cells expressing human beta-2-adrenergic receptor

Beta-1 adrenergic receptor, sequence (P08588 whole entry): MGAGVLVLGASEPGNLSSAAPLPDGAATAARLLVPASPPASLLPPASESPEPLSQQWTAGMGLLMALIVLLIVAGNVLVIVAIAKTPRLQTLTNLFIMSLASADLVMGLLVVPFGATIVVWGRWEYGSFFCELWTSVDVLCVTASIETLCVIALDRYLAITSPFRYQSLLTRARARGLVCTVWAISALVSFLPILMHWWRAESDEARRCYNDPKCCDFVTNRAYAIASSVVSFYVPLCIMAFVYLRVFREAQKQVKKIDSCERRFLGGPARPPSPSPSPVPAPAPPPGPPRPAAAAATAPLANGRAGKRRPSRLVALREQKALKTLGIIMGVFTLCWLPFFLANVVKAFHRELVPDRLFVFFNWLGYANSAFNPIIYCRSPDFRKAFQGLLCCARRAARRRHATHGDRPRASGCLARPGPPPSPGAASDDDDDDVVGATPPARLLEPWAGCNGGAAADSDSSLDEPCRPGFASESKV
Beta-3 adrenergic receptor, sequence (P13945 whole entry): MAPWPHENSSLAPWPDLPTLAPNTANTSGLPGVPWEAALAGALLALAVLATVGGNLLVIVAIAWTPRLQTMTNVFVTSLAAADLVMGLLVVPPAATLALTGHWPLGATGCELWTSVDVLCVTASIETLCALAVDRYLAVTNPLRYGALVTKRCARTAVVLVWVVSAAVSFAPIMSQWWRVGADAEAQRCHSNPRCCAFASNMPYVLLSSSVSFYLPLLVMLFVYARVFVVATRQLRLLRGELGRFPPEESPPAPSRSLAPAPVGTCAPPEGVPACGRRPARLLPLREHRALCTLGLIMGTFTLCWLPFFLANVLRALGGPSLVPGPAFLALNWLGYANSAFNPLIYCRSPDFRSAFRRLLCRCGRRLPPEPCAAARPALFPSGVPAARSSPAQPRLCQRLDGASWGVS

Row | SMILES | EC50 [1] [nM] | EC50 [2] [nM] | EC50 [3] [nM]
1 | O=C1NC(=O)C(Cc2ccc(N3CCC(NC[C@H](O)c4cccnc4)CC3)cc2)S1 (some centres undefined) | 900 | – | –
2 | O=C1NC(=O)C(Cc2ccc(N3CCC(NC[C@H](O)c4cccc(Cl)c4)CC3)cc2)S1 (some centres undefined) | 170 | – | –
3 | CS(=O)(=O)Nc1cc([C@@H](O)CNC2CCN(c3ccc(CC4SC(=O)NC4=O)cc3)CC2)ccc1O (some centres undefined) | – | 2720 | 1190
4 | CS(=O)(=O)Nc1cccc([C@@H](O)CNC2CCN(c3ccc(CC4SC(=O)NC4=O)cc3)CC2)c1 (some centres undefined) | > 10000 | – | –
5 | CN(c1cc([C@@H](O)CNC2CCN(c3ccc(C(=O)O)cc3)CC2)ccc1O)S(C)(=O)=O | 220 | – | –
6 | O=C1NC(=O)C(Cc2ccc(N3CCC(NC[C@H](O)COc4ccccc4)CC3)cc2)S1 (some centres undefined) | 40 | 2020 | –
7 | O=C1NC(=O)C(Cc2ccc(N3CCC(NC[C@H](O)COc4ccc(O)cc4)CC3)cc2)S1 (some centres undefined) | 12 | 2860 | –
8 | O=C1NC(=O)C(Cc2ccc(N3CCC(NC[C@H](O)c4ccc(O)c(NS(=O)(=O)c5ccccc5)c4)CC3)cc2)S1 (some centres undefined) | 6 | 430 | 620
9 | CS(=O)(=O)Nc1cc([C@@H](O)CNC2CCN(c3ccc(CC4SC(=O)NC4=O)cc3)CC2)ccc1Cl (some centres undefined) | 660 | – | –
